In ChEMBL document CHEMBL4033655, “Part I: Design, synthesis and biological evaluation of novel pyrazole-benzimidazole conjugates as checkpoint kinase 2 (Chk2) inhibitors with studying their activities alone and in combination with genotoxic drugs” (Eur J Med Chem, 2017):

Experiment: Acute toxicity in Sprague-Dawley rat assessed as mortality administered orally as single dose measured up to 1 month
Details: in vivo, po

## Cc1nn(-c2ccccc2)c(Oc2ccc(-c3nc4cc(C(=O)O)ccc4[nH]3)cc2)c1[N+](=O)[O-]
  LD50: 400 mg/kg
